The record followed here is DBAASP.

Test systems include Bacillus subtilis; Escherichia coli; Klebsiella pneumoniae; Micrococcus luteus; Proteus mirabilis; Pseudomonas aeruginosa; Salmonella typhimurium; Shigella dysenteriae; Staphylococcus aureus; Candida albicans; Escherichia coli UB1005.
Common to all, as to test: ≥ marks a high value that may be exact or a test limit, other limits are often not marked, values filed in µg/mL are converted to µM
Experiment [1] concerns Staphylococcus epidermidis.
In experiment [2] the test system is Escherichia coli ATCC 10536.
Experiment [3] concerns Escherichia coli DH5alpha.
For experiment [4], the system named is Staphylococcus aureus ATCC 9144.
In experiment [5] the test system is Bacillus subtilis ATCC 6633.
The subject of experiment [6] is Escherichia coli ATCC 25922.
The test system of experiment [7] is Pseudomonas aeruginosa ATCC 27853.
Experiment [8] concerns Staphylococcus aureus ATCC 12600.
Experiment [9] relates to Streptococcus mutans ATCC 25175.
Experiment [10] concerns Klebsiella pneumoniae ATCC 13883.
The subject of experiment [11] is Pseudomonas aeruginosa PAO1.
In experiment [12] the test system is Staphylococcus aureus USA 300.
Experiment [13] has as its system Candida albicans ATCC 20032.
Experiment [14] concerns Staphylococcus aureus ATCC 25923.
For experiment [15], the system named is Pseudomonas aeruginosa H103.
Experiment [16] has as its system Salmonella enterica serovar Typhimurium.
Experiment [17] relates to Enterococcus faecalis ATCC 29212.

Molecules are shown by their SMILES. In brackets after ≈: the same amount, converted by molar mass. Several values for one entry are separate records, joined by “and”; a condition that tells them apart may be missing. Equal entries are not always repeated.

As to `CC(C)C[C@H](NC(=O)[C@H](C)NC(=O)CNC(=O)[C@H](CC(C)C)NC(=O)[C@@H](N)Cc1ccccc1)C(=O)N[C@@H](Cc1ccccc1)C(=O)N[C@@H](CCCCN)C(=O)N[C@@H](Cc1ccccc1)C(=O)N[C@@H](C)C(=O)N[C@@H](CO)C(=O)N[C@@H](CCCCN)C(=O)O` [FLGALFKFASK], the MIC in the experiment with Bacillus subtilis was 20.4 µM (≈ 25 µg/mL); with Escherichia coli, 81.4 µM (≈ 100 µg/mL); in the experiment on Klebsiella pneumoniae, 81.4 µM (≈ 100 µg/mL); with Micrococcus luteus, 20.4 µM (≈ 25 µg/mL); in the experiment with Proteus mirabilis, at least 163 µM; against Pseudomonas aeruginosa, over 163 µM. The minimum inhibitory concentration (MIC) was at least 163 µM against Salmonella typhimurium, at least 81.4 µM in the experiment on Shigella dysenteriae, 40.7 µM (≈ 50 µg/mL) in the experiment with Staphylococcus aureus and at least 81.4 µM in experiment [1].

On to `CC[C@H](C)[C@H](NC(=O)[C@@H]1CCCN1C(=O)[C@@H]1CCCN1C(=O)[C@H](CO)NC(=O)[C@@H](NC(=O)[C@H](CCCCN)NC(=O)[C@H](CCCCN)NC(=O)[C@H](Cc1ccccc1)NC(=O)[C@H](CC(C)C)NC(=O)[C@H](CCCCN)NC(=O)[C@H](CCCCN)NC(=O)CNC(=O)[C@H](CCCCN)NC(=O)[C@H](CCCCN)NC(=O)[C@H](CCCN=C(N)N)NC(=O)[C@H](Cc1ccccc1)NC(=O)[C@H](CCCN=C(N)N)NC(=O)[C@H](CCCCN)NC(=O)[C@H](Cc1ccccc1)NC(=O)[C@H](CCCN=C(N)N)NC(=O)[C@@H](N)Cc1ccccc1)C(C)C)C(=O)N[C@@H](CC(C)C)C(=O)N[C@@H](CC(C)C)C(=O)N[C@@H](CC(C)C)C(=O)N[C@@H](Cc1cnc[nH]1)C(=O)N[C@@H](CC(C)C)C(N)=O` [FRFKRFRKKGKKLFKKVSPPILLLHL], for which the MIC was 3.3 µM and 8.1 µM in experiment [2]; 3.1 µM (≈ 10 µg/mL) in [3]; 3.2 µM (≈ 10.3 µg/mL) in [4].

Regarding `CC[C@H](C)[C@H](NC(=O)[C@H](CCCN=C(N)N)NC(=O)[C@@H](NC(=O)[C@@H](NC(=O)[C@@H]1CCCN1C(=O)[C@@H](NC(=O)[C@@H](NC(=O)[C@@H](NC(=O)[C@@H]1CCCN1C(=O)CNC(=O)[C@H](Cc1ccc(O)cc1)NC(=O)[C@H](CCCCN)NC(=O)[C@H](CCCCN)NC(=O)[C@H](Cc1c[nH]c2ccccc12)NC(=O)[C@H](C)NC(=O)[C@H](CCCN=C(N)N)NC(=O)[C@H](CC(C)C)NC(=O)[C@@H](NC(=O)[C@H](CCCCN)NC(=O)[C@H](CCCN=C(N)N)NC(=O)CNC(=O)[C@H](CC(C)C)NC(=O)[C@H](CO)NC(=O)[C@H](CCCN=C(N)N)NC(=O)[C@H](C)NC(=O)CNC(=O)CN)[C@@H](C)CC)[C@@H](C)CC)[C@@H](C)CC)C(C)C)[C@@H](C)CC)[C@@H](C)CC)C(N)=O` [GGARSLGRKILRAWKKYGPIIVPIIRI], the MIC in experiment [5] stood at 1.2 µM (≈ 3.64 µg/mL); in experiment [2], 2.2 µM (≈ 6.67 µg/mL); in experiment [3] it was 2.5 µM (≈ 7.58 µg/mL); in [4] it was 3.1 µM (≈ 9.4 µg/mL).

For `CC[C@H](C)[C@H](NC(=O)CN)C(=O)NCC(=O)N[C@@H](C)C(=O)N[C@H](C(=O)N[C@@H](CC(C)C)C(=O)N[C@@H](CCCCN)C(=O)N[C@H](C(=O)N[C@@H](C)C(=O)N[C@H](C(=O)N[C@H](C(=O)NCC(=O)N[C@@H](CC(C)C)C(=O)N1CCC[C@H]1C(=O)N[C@@H](C)C(=O)N[C@@H](C)C(=O)N[C@H](C(=O)N[C@@H](CO)C(=O)N[C@@H](Cc1c[nH]c2ccccc12)C(=O)N[C@H](C(=O)N[C@@H](CCCCN)C(=O)N[C@@H](CCCN=C(N)N)C(=O)N[C@@H](CCCCN)C(=O)N[C@@H](CCCN=C(N)N)C(=O)N[C@@H](CCC(N)=O)C(=O)N[C@@H](CCC(N)=O)C(N)=O)[C@@H](C)CC)[C@@H](C)CC)[C@@H](C)O)[C@@H](C)O)C(C)C)C(C)C` [GIGAVLKVATTGLPAAISWIKRKRQQ], the minimal inhibitory concentration (MIC) in experiment [5] was 6 µM (≈ 16.6 µg/mL); in [2] it was 3.3 µM (≈ 9.12 µg/mL); in [3], 4.2 µM (≈ 11.6 µg/mL); in experiment [4], 4 µM (≈ 11 µg/mL).

`CC[C@H](C)[C@H](NC(=O)[C@H](C)NC(=O)CNC(=O)[C@H](Cc1ccccc1)NC(=O)[C@H](CC(C)C)NC(=O)CN)C(=O)N[C@@H](C)C(=O)NCC(=O)N[C@@H](Cc1ccccc1)C(=O)N[C@H](C(=O)N[C@@H](CCC(=O)O)C(=O)N[C@@H](CC(N)=O)C(=O)NCC(=O)N[C@@H](Cc1c[nH]c2ccccc12)C(=O)N[C@@H](CCC(=O)O)C(=O)NCC(=O)N[C@@H](CCSC)C(=O)N[C@H](C(=O)N[C@@H](CC(=O)O)C(=O)NCC(N)=O)[C@@H](C)CC)[C@@H](C)CC` [GLFGAIAGFIENGWEGMIDG]: the minimal inhibitory concentration (MIC) in experiment [6] was over 60.9 µM; in experiment [7] it was over 60.9 µM; in experiment [8], at least 60.9 µM; in experiment [9], at least 60.9 µM.

As to `CC(C)C[C@H](NC(=O)[C@H](CC(C)C)NC(=O)[C@H](CCCCN)NC(=O)[C@H](CC(C)C)NC(=O)CNC(=O)[C@H](CC(C)C)NC(=O)[C@H](CCCCN)NC(=O)[C@H](CC(C)C)NC(=O)[C@H](CC(C)C)NC(=O)[C@H](CC(C)C)NC(=O)[C@H](CO)NC(=O)[C@H](CC(C)C)NC(=O)CN)C(N)=O` [GLSLLLKLGLKLL], the minimum inhibitory concentration (MIC) in experiment [6] is over 25 µM; in experiment [10], 25 µM (≈ 34.5 µg/mL); in experiment [11], over 25 µM; in experiment [12], 1.13 µM (≈ 1.56 µg/mL).

Turning to `CC[C@H](C)[C@H](N)C(=O)N[C@@H](CC(C)C)C(=O)NCC(=O)N1CCC[C@H]1C(=O)N[C@H](C(=O)N[C@@H](CC(C)C)C(=O)NCC(=O)N[C@@H](CC(C)C)C(=O)N[C@H](C(=O)NCC(=O)N[C@@H](CC(=O)O)C(=O)N[C@H](C(=O)N[C@@H](CC(C)C)C(=O)NCC(=O)N[C@@H](CC(=O)O)C(=O)N[C@@H](CC(C)C)C(=O)N[C@@H](CC(C)C)C(N)=O)[C@@H](C)O)C(C)C)C(C)C` [ILGPVLGLVGDTLGDLL], the minimal inhibitory concentration (MIC) was at least 60.1 µM in experiment [5], at least 60.1 µM in experiment [13], over 60.1 µM in experiment [6] and over 60.1 µM in experiment [14].

With `CC[C@H](C)[C@H](NC(=O)[C@H](CCCN=C(N)N)NC(=O)[C@H](Cc1ccccc1)NC(=O)[C@H](CCC(N)=O)NC(=O)[C@@H](N)CCCCN)C(=O)N[C@@H](CCCN=C(N)N)C(=O)N[C@H](C(=O)N[C@@H](CCCN=C(N)N)C(=O)N[C@H](C(=O)N[C@H](C(=O)N[C@@H](CCCN=C(N)N)C(=O)N[C@@H](CCCCN)C(N)=O)[C@@H](C)CC)C(C)C)C(C)C` [KQFRIRVRVIRK], the minimum inhibitory concentration (MIC) in the experiment with Candida albicans is 3.75 µM (≈ 6 µg/mL); in the experiment on Escherichia coli UB1005 it was 1.88 µM (≈ 3 µg/mL); in experiment [15] it was 3.75 µM (≈ 6 µg/mL); in experiment [16], 3.75 µM (≈ 6 µg/mL); in experiment [14], 7.5 µM (≈ 12 µg/mL); in [1], 1 µM (≈ 1.6 µg/mL).

Consider `CC[C@H](C)[C@H](NC(=O)[C@H](CCCN=C(N)N)NC(=O)[C@H](C)NC(=O)[C@H](CC(C)C)NC(=O)[C@@H](N)CCCN=C(N)N)C(=O)N[C@H](C(=O)N1CCC[C@H]1C(=O)N[C@H](C(=O)N[C@@H](CCCN=C(N)N)C(=O)N[C@H](C(=O)N[C@@H](C)C(=O)N[C@@H](CCCN=C(N)N)C(=O)O)C(C)C)[C@@H](C)CC)C(C)C` [RLARIVPIRVAR], for which the MIC against Candida albicans was over 176 µM; in experiment [17], over 176 µM; against Escherichia coli UB1005 it was at least 176 µM; in experiment [15], at least 176 µM; in experiment [16] it was at least 176 µM; in experiment [14], over 176 µM. The same compound returned an MIC in [1] of at least 176 µM.

Take `NCCCC[C@H](NC(=O)[C@H](CCCN=C(N)N)NC(=O)[C@H](CCCN=C(N)N)NC(=O)[C@H](Cc1c[nH]c2ccccc12)NC(=O)[C@@H](N)CCCN=C(N)N)C(=O)N[C@@H](Cc1c[nH]c2ccccc12)C(=O)N[C@@H](Cc1c[nH]c2ccccc12)C(=O)N[C@@H](Cc1c[nH]c2ccccc12)C(=O)N[C@@H](Cc1c[nH]c2ccccc12)C(=O)O` [RWRRKWWWW]: the MIC against Candida albicans came out at 5.6 µM (≈ 8.66 µg/mL); in experiment [17], 2.8 µM (≈ 4.33 µg/mL); against Escherichia coli UB1005, 1.4 µM (≈ 2.16 µg/mL); in experiment [15], 11.2 µM (≈ 17.3 µg/mL); in experiment [16] it was 2.8 µM (≈ 4.33 µg/mL); in experiment [14], 0.7 µM (≈ 1.08 µg/mL). In experiment [1], this compound showed an MIC of 0.7 µM (≈ 1.08 µg/mL).
